Values after ≈ are worked out from the molar mass of the structure shown. Active and inactive are the calls of the source. No cut-off for these calls is given here.
Columns and labels:
[1] = test system: Mycobacterium tuberculosis; test: Binding affinity to Mycobacterium tuberculosis ADK expressed in Escherichia coli BL21(DE3) cells assessed as relative STD enhancements of signal from H-1' at 500 uM by 1H STD NMR spectroscopy
Adenosine kinase [2] = biological target: T1, Adenosine kinase (Homo sapiens, UniProt P55263); test: Binding affinity to human ADK expressed in Escherichia coli BL21(DE3) cells in presence of adenosine by two dimensional 15N/1H triple-resonance HSQC NMR spectroscopy
Target sequence in this assay (P55263 2-362 limits assumed): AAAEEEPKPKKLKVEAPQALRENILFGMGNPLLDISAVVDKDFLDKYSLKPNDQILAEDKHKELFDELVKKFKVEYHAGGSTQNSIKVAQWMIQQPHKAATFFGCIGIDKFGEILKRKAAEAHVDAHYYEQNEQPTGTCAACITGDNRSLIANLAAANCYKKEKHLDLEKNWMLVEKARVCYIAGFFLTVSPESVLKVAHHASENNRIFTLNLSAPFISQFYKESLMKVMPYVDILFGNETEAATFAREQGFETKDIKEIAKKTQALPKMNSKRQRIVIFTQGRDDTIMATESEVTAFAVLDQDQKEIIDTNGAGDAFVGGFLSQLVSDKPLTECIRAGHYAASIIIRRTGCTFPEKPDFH

Adenosine kinase [3] = biological target: T1, Adenosine kinase; test: Binding affinity to human ADK expressed in Escherichia coli BL21(DE3) cells in presence of ATPgammaS by two dimensional 15N/1H triple-resonance HSQC NMR spectroscopy
Target sequence in this assay (P55263 2-362 limits assumed): as above

MRC5 = test: Cytotoxicity against human MRC5 cells by MTT assay; assay type: functional
[4] = Inhibition of Mycobacterium tuberculosis ADK expressed in Escherichia coli BL21(DE3) cells using [3H]adenosine by liquid scintillation counting method
[5] = test system: Mycobacterium tuberculosis; test: Binding affinity to Mycobacterium tuberculosis ADK expressed in Escherichia coli BL21(DE3) cells assessed as relative STD enhancements of signal from H-8 at 500 uM by 1H STD NMR spectroscopy
[6] = test system: Mycobacterium tuberculosis; test: Mixed competitive inhibition of Mycobacterium tuberculosis ADK expressed in Escherichia coli BL21(DE3) cells using varying ATP levels by Lineweaver-Burk plot
BJ = test: Cytotoxicity against human BJ cells by MTT assay; assay type: functional
Adenosine kinase [7] = biological target: T1, Adenosine kinase; test: Binding affinity to free human ADK expressed in Escherichia coli BL21(DE3) cells by two dimensional 15N/1H triple-resonance HSQC NMR spectroscopy
Target sequence in this assay (P55263 2-362 limits assumed): as above

[8] = test system: Mycobacterium tuberculosis; test: Activity of Mycobacterium tuberculosis ADK expressed in Escherichia coli BL21(DE3) cells assessed as compound phosphorylation by measuring conversion of compound to 5'-phosphate
[9] = test system: Mycobacterium tuberculosis; test: Mixed competitive inhibition of Mycobacterium tuberculosis ADK expressed in Escherichia coli BL21(DE3) cells using varying adenosine levels by Lineweaver-Burk plot
Adenosine kinase [10] = biological target: T1, Adenosine kinase; test: Mixed competitive inhibition of human ADK expressed in Escherichia coli BL21(DE3) cells using varying adenosine levels by Lineweaver-Burk plot
Target sequence in this assay (P55263 2-362 limits assumed): as above

[11] = test system: Mycobacterium tuberculosis; test: Binding affinity to Mycobacterium tuberculosis ADK expressed in Escherichia coli BL21(DE3) cells assessed as relative STD enhancements of signal from H-2 at 500 uM by 1H STD NMR spectroscopy
[12] = test system: Mycobacterium tuberculosis; test: Antimycobacterial activity against Mycobacterium tuberculosis H37Rv My 331/88 assessed as microbial growth inhibition incubated for 14 days; assay type: functional; details: H37Rv My 331/88, 336 h
Adenosine kinase [13] = biological target: T1, Adenosine kinase; test: Mixed uncompetitive inhibition of human ADK expressed in Escherichia coli BL21(DE3) cells using varying ATP levels by Lineweaver-Burk plot
Target sequence in this assay (P55263 2-362 limits assumed): as above

Adenosine kinase [14] = biological target: T1, Adenosine kinase; test: Activity of human ADK expressed in Escherichia coli BL21(DE3) cells assessed as compound phosphorylation by measuring conversion of compound to 5'-phosphate; design: concentration or dose not given beside the values
Target sequence in this assay (P55263 2-362 limits assumed): as above

Adenosine kinase [15] = biological target: T1, Adenosine kinase; test: Binding affinity to human ADK expressed in Escherichia coli BL21(DE3) cells assessed as relative STD enhancements of signal from H-8 at 500 uM by 1H STD NMR spectroscopy
Adenosine kinase [16] = biological target: T1, Adenosine kinase; test: Binding affinity to human ADK expressed in Escherichia coli BL21(DE3) cells assessed as relative STD enhancements of signal from H-1' at 500 uM by 1H STD NMR spectroscopy
Adenosine kinase [17] = biological target: T1, Adenosine kinase; test: Binding affinity to human ADK expressed in Escherichia coli BL21(DE3) cells assessed as relative STD enhancements of signal from H-2 at 500 uM by 1H STD NMR spectroscopy
Adenosine kinase [18] = biological target: T1, Adenosine kinase; test: Binding affinity to human ADK expressed in Escherichia coli BL21(DE3) cells assessed as relative STD enhancements of signal from Ar at 500 uM by 1H STD NMR spectroscopy
[19] = test system: Mycobacterium tuberculosis; test: Binding affinity to Mycobacterium tuberculosis ADK expressed in Escherichia coli BL21(DE3) cells assessed as relative STD enhancements of signal from Ar at 500 uM by 1H STD NMR spectroscopy
Adenosine kinase [20] = biological target: T1, Adenosine kinase; test: Inhibition of human ADK expressed in Escherichia coli BL21(DE3) cells using [3H]adenosine by liquid scintillation counting method
Target sequence in this assay (P55263 whole entry): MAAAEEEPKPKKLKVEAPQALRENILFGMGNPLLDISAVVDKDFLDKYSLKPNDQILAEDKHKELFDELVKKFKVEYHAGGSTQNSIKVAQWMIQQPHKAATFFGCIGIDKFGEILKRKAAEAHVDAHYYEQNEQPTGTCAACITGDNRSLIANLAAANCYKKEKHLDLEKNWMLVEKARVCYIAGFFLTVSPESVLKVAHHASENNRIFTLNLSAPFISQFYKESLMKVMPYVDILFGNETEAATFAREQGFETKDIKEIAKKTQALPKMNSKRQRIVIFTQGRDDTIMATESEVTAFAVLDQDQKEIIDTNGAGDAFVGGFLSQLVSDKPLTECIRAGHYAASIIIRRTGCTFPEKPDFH

[21] = test system: Mycobacterium tuberculosis; test: Binding affinity to Mycobacterium tuberculosis ADK expressed in Escherichia coli BL21(DE3) cells assessed as relative STD enhancements of signal from Ar' at 500 uM by 1H STD NMR spectroscopy
[22] = test system: Mycobacterium tuberculosis; test: Binding affinity to Mycobacterium tuberculosis ADK expressed in Escherichia coli BL21(DE3) cells assessed as relative STD enhancements of signal from Ar'' at 500 uM by 1H STD NMR spectroscopy

Row | SMILES | Activity [1] | Activity (Adenosine kinase [2]) | Activity (Adenosine kinase [3]) | CC50 (MRC5) | IC50 [4] | Activity [5] | CC50 (BJ) | Activity (Adenosine kinase [7]) | Activity [8] | Activity [11] | MIC [12] | Activity (Adenosine kinase [14]) | Activity (Adenosine kinase [15]) | Activity (Adenosine kinase [16]) | Activity (Adenosine kinase [17]) | Activity (Adenosine kinase [18]) | Activity [19] | IC50 (Adenosine kinase [20]) | Activity [21] | further results
1 | C#Cc1cn([C@@H]2O[C@H](CO)[C@@H](O)[C@H]2O)c2ncnc(N)c12 | 100% | Active | Active | 13.4 µM | 0.33 µM | 54% | 43.1 µM | Active | inactive | 63% | 8 µM (≈ 2.32 µg/mL) | 62% | 17% | 100% | 33% | – | – | – | – | inhibition [6]: Active; inhibition [9]: Active; inhibition (Adenosine kinase [10]): Active; inhibition (Adenosine kinase [13]): Active
2 | Nc1ncnc2c1c(-c1cccc3c1Oc1ccccc1S3)cn2[C@@H]1O[C@H](CO)[C@@H](O)[C@H]1O | 100% | Active | Active | 95.1 µM | 0.3 µM | 68% | > 100 µM | Active | inactive | 50% | 16 µM (≈ 7.43 µg/mL) | – | 39% | 100% | 33% | 60% | 83% | > 20 µM | – | –
3 | Nc1ncnc2c1c(-c1nccs1)cn2[C@@H]1O[C@H](CO)[C@@H](O)[C@H]1O | 100% | Active | Active | 25.1 µM | 4.5 µM | 33% | > 100 µM | Active | inactive | 37% | 125 µM (≈ 43.7 µg/mL) | 3% | 41% | 100% | 57% | 52% | 34% | 2.3 µM | 45% | –
4 | Nc1ncnc2c1c(-c1ccco1)cn2[C@@H]1O[C@H](CO)[C@@H](O)[C@H]1O | 100% | Active | Active | 9.49 µM | 2.1 µM | 29% | 18.3 µM | Active | inactive | 43% | 62.5 µM (≈ 20.8 µg/mL) | 8% | 36% | 100% | 64% | 74% | 38% | > 5 µM | 31% | Activity [22]: 39%
5 | CC(C)c1cccc(-c2cn([C@@H]3O[C@H](CO)[C@@H](O)[C@H]3O)c3ncnc(N)c23)c1 | 100% | Active | Active | > 100 µM | 2.33 µM | 42% | > 100 µM | Active | inactive | 42% | 32 µM (≈ 12.3 µg/mL) | – | 72% | 100% | 72% | 52% | 37% | 3.3 µM | – | –

From ChEMBL document CHEMBL3352218, “Structural basis for inhibition of mycobacterial and human adenosine kinase by 7-substituted 7-(Het)aryl-7-deazaadenine ribonucleosides” (J Med Chem, 2014)
